Experimental data as given in publication PMC5884906, “Single Administration of HBK-15—a Triple 5-HT1A, 5-HT7, and 5-HT3 Receptor Antagonist—Reverses Depressive-Like Behaviors in Mouse Model of Depression Induced by Corticosterone” (Molecular Neurobiology, 2017).

Experiments:
[1] = test system: corticosterone-treated mice; assay: forced swim test, single administration, corticosterone model; format: in vivo
Protocol: (§1) Mice were injected with corticosterone (s.c., 20 mg/kg) at random times during the light phase for consecutive 21 days (Fig. 1c). The dose and route of administration of corticosterone were based on studies performed by Zhao and colleagues. After the end of the procedure, next day 30 min before the test, corticosterone-treated mice were given (i.p.) saline, HBK-15 (1.25 mg/kg), fluoxetine (10 mg/kg), or ketamine (1 mg/kg) (Fig. 1c). Control mice received (i.p.) saline. The experimental groups consisted of eight randomly selected animals. We chose the dose of HBK-15 that was active in the chronic experiments (i.e., 1.25 mg/kg). The dose of ketamine was based on the studies performed by Pazini and colleagues. Animals were tested in the forced swim test and spontaneous locomotor activity test. After behavioral testing, mice were scarified and their hippocampi collected for biochemical analysis.
Forced swim test was performed according to the method described by Porsolt and colleagues and previously described. Mice were placed individually for 6 min in glass cylinders (height 25 cm, diameter 10 cm) containing […] (23–25 °C). The total time of immobility was recorded during the final 4 min of the test. The experiments were recorded and scored using aLab.io software by a trained observer blind to the treatments.

[2] = test system: BDNF level in the hippocampus; assay: BDNF level in the hippocampus (ELISA), single administration; format: in vivo, mice
Protocol: as §1
After the behavioral assessments, mice were sacrificed, and their brains were rapidly removed and chilled in an ice-cold saline solution. The hippocampi were dissected on a cold plate, frozen, and stored at −80 °C until assay. On the day of experiments, tissues were thawed on ice and homogenized (1:9 w/v) in phosphate-buffered saline (4 °C) and protease inhibitor cocktail was added. The 10% homogenates were prepared and homogenized for 30 s with TissueRuptor homogenizer. The homogenized tissues were centrifuged (2500×g at 4 °C for 20 min), and the supernatants were collected for further assays.
Protein concentrations of BDNF and NGF in homogenates from hippocampi were determined using the enzyme-linked immunosorbent assay (ELISA) kits (BDNF: DZE201020014, SunRed Biotechnology Company; NGF: MBS825100, MyBioSource) according to the manufacturer’s instructions. […] The samples were analyzed in duplicates, and the mean concentrations were calculated. […] The intensity of the color was read at 450 nm. Absorbance was measured in a multifunction plate reader (POLARstar Omega, BMG Labtech, Germany). […]

[3] = target: serotonin 5-HT1A receptor; parameters: method as in PMID 26554929; details: previous experiments; read-out: 5-HT1A receptor antagonist IC50; cited from earlier work
5-HT7 receptor = target: 5-HT7 receptor; parameters: method as in PMID 26554929; details: previous experiments; read-out: 5-HT7 receptor antagonist IC50; cited from earlier work
[4] = cited from earlier work
[5] = cited from earlier work; remark: listed apart in the source
[6] = acute experiment, corticosterone 20 mg/kg s.c. 21 days + saline

Row | Compound | increase in immobility vs control [1, 6] | decrease in BDNF level in the hippocampus vs control [2, 6] | IC50 [3] | IC50 (5-HT7 receptor) | cholinolytic activity [4] | antihistaminic activity [5] | effect on corticosterone-induced increase in immobility ([1]; single 1.25 mg/kg i.p., 30 min before the test) | effect on corticosterone-induced decrease in BDNF level in the hippocampus ([2]; single 1.25 mg/kg i.p.)
1 | C[C@]12C[C@H](O)[C@H]3[C@@H](CCC4=CC(=O)CC[C@@]43C)[C@@H]1CC[C@@H]2C(=O)CO [corticosterone] | 20% | 47.0% |  |  |  |  |  | 
2 | COc1ccccc1N1CCN(CCOCCOc2c(C)cccc2C)CC1.Cl [HBK-14, 1-[(2,6-Dimethylphenoxy)ethoxyethyl]-4-(2-methoxyphenyl)piperazine hydrochloride] |  |  | 64 nM | 77 nM | negligible | negligible |  | 
3 | COc1ccccc1N1CCN(CCOCCOc2c(C)cccc2Cl)CC1.Cl [HBK-15, 1-[(2-chloro-6-methylphenoxy)ethoxyethyl]-4-(2-methoxyphenyl)piperazine hydrochloride] |  |  | 19 nM | 220 nM | negligible | negligible | reversed an increase in immobility | reversed the decrease in BDNF level
